Values joined by “and” are separate entries in the source; they are usually repeats but may differ in a detail not shown here. Equal values may be shown once. Read-outs that look alike come from different tables or passages of the source. Where a SMILES comes first, the peptide text is derived from it.
Experiments:
rat apelin receptor-EGFP [1] = target: T1, rat apelin receptor-EGFP (Rattus norvegicus, UniProt Q9JHG3); assay: Apelin receptor-EGFP internalization, confocal microscopy; assay type: cell-based
T1 construct: expressed in transfected cells
T1 sequence (Q9JHG3 1-377): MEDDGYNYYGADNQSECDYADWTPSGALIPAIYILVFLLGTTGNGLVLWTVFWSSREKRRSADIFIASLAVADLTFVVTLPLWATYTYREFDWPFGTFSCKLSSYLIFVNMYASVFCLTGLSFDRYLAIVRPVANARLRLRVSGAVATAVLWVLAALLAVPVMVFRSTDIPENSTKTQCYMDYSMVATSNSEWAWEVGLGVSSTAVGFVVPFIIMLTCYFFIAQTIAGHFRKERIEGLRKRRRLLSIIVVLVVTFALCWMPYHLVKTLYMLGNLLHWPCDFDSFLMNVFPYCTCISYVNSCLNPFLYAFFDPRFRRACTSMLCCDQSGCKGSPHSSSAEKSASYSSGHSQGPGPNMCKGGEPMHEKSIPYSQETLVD
Procedure: The internalization assay was performed as described previously with CHO cells stably expressing the rat apelin receptor-EGFP (43). […] Cells were then mounted in Aquapolymount (Polysciences, Warrington, Pa., USA) for confocal microscopic analysis (Sec (42) for details).

[2] = test system: anaesthesized normotensive Wistar rats; assay: Arterial blood pressure after i.v. injection; assay type: in vivo, rat; conditions: for Maximal decrease in BP (mmHg) / Time For maximal BP decrease / Time to return to a plateau value / plateau value reached (in brackets): Table 5
Procedure: The resulting solution was administered to the rats via a catheter inserted into the right femoral vein, and was immediately followed by 0.2 ml Krebs buffer alone to flush the venous catheter. An additional catheter was inserted into the right femoral artery, as previously described (47), for the monitoring of mean arterial blood pressure (MBP) as previously described (48). The arterial catheter was connected to a COBE CDX III pressure transducer (Phymep, Paris, France) linked to the Maclab system (Phymep, Paris, France). HR measurement was triggered by the blood pressure signal. BP was continuously recorded throughout the experiment. […] Mean AUC for each group were then calculated. Unpaired Student's t test was used to determine whether BP observed in response to substances administered […].) has statistically significant difference.

in vitro = conditions: for half-life at 5 μM: mouse, plasma
Procedure: For each compound, the stock solution (100 μM in water) was diluted in plasma to a final incubation concentration of 5 μM. The incubation at 37° C. was stopped respectively at to and 4 h by adding one volume of ice cold acetonitrile containing 0.1% trifluoroacetic acid. The sample was vortexed for 1 min and then centrifuged at 4° C. before LC-MS injection of the supernatant. Analyses were performed on a Kinetex RP-C18 column (2.6 μm, 100 Å, 50×4.6 mm) using a linear gradient (solvent B in solvent A, solvent A: water/0.05% TFA; solvent B: acetonitrile; flow rate of 2 mL·min^−1: detection at 358 nm). The percentage of remaining test compound relative to t0 was measured by monitoring the peak area of the chromatogram.

rat apelin receptor-EGFP [3] = target: T1, rat apelin receptor-EGFP; assay: [125I]pE13F radioligand binding on CHO membrane preparations
Procedure: Crude membrane preparation from CHO stably expressing the wild-type rat apelin receptor-EGFP, were prepared as previously described (39). […] The reaction was stopped by adding ice-cold binding buffer and filtered through glass microfiber filters (Whatman GF/C filters). Radioactivity was counted in Wizard 1470 Wallac gamma counter (Perkin Elmer, Turku, Finland).

[4] = test system: isolated perfused rat heart; assay: Isolated perfused rat heart, cardiac contractility
Procedure: Animals were anesthetized with pentobarbital sodium (50 mg/kg intraperitoneally). Heparin (200 IU/kg) was administrated into the femoral vein. Hearts were excised quickly and arrested in ice-cold Krebs-Henseleit solution containing (mM): […] […] Temperature was continuously monitored by a thermoprobe inserted into the right atrium. Hearts beat spontaneously under the sinus rhythm. […] The maximal rate of rise of left ventricular pressure (dP/dtmax) and heart rate were derived from left ventricular pressure. After 20-minutes equilibration period, the hearts were treated by drugs added to the perfusate with an infusion pump (Harvard Apparatus Pump 11) at rate of 100 μL/min for 30 minutes.

[5] = test system: water-deprived or euhydrated mice; assay: Plasma AVP after i.c.v. injection (RIA); assay type: in vivo, mouse; conditions: for effect on plasma AVP levels in euhydrated mice: supramaximal dose 1 μg i.c.v.; for maximal decrease in AVP release: water-deprived mice
Procedure: Animals were killed 1 min after the injection, and trunk blood (0.5-1 ml) was collected in chilled tubes containing 50 μl of 0.3 M EDTA pH 7.4. […] RIA kit (Peninsula Laboratories International Inc, San Carlo, USA).

rat apelin receptor-EGFP [6] = target: T1, rat apelin receptor-EGFP; assay: ERK1/2 phosphorylation (Alphascreen); assay type: cell-based
Source text: ERK1/2 phosphorylation was then monitored by Alphascreen technology.

AT1 receptor = assay: Selectivity towards the AT1 receptor; assay type: binding
[7] = test system: rat aortic rings precontracted by noradrenaline (NA); assay: Isometric tension of aortic rings precontracted by noradrenaline
Procedure: The experiments were performed in rat aortic rings as previously described (39). […] The aortas were cleaned of excess connective tissue and fat and cut into rings of approximately 3-4 mm in length. Special care was taken to avoid damaging the luminal surface of the endothelium. […] One end of the aortic ring was connected to a tissue holder and the other to an isometric force transducer (EMKA Technologies, Paris, France). […] During equilibration period, the rings were washed every 30 min. Then, a first relaxation to acetylcholine (Ach, 10^−4 mol/L) was implemented to check the integrity or the absence of the endothelium in rings precontracted with NA (3×10^−8 mol/L). After rinsing with PSS to baseline tension, rings were equilibrated for 90 min. […] Each concentration of the drug was added at the maximal effect of the precedent concentration. The concentration-response curves were continuously recorded on a PC by means of IOX v 2.4 (EMKA Technologies, Paris) for further analysis (Datanalyst v2.1, EMKA Technologies, Paris).

rat apelin receptor-EGFP [8] = target: T1, rat apelin receptor-EGFP; assay: Inhibition of forskolin-induced cAMP production (HTRF); assay type: cell-based
[9] = test system: rat glomerular arterioles precontracted by Angiotensin II (AngII); assay: Diameter of glomerular arterioles precontracted by angiotensin II; conditions: for vasorelaxant effect in the presence of L-NAME: NO synthase inhibitor
Procedure: The left kidney of male rats was prepared for microdissection of arterioles as previously described (44). Glomerular arterioles were isolated under stereomicroscopic observation. The afferent and muscular efferent arterioles were isolated with the glomerulus and identify according their morphology and localization in the inner renal cortex as previously described by Helou et al. […] For these experiments afferent and muscular efferent arterioles were microdissected attached to the gomeruli. […] Arteriolar diameters were measured with Adobe Photoshop CS. Diameters were measured on a distance equal to about 100 μm upstream of the glomerulus and triplicate were performed for each arteriole. Calibration was made using a stage micrometer. The average diameter for each experimental condition was used for statistical analysis.

[10] = 15 nmol i.v., listed as JFM V-01961

CCCC[C@H](NC(=O)[C@@H]1CCCN1C(=O)[C@@H](C)NC(=O)[C@H](CCCCN)NC(=O)C(C)(C)NC(=O)[C@H](CO)NC(=O)[C@@H](CC(C)C)NC(=O)[C@H](CCCNC(=N)N)NC(=O)[C@@H]1CCCN1C(=O)[C@H](CCCNC(=N)N)NC(=O)[C@@H](CCC(N)=O)NC(=O)[C@H](CCCNC(=N)N)NC(=O)[C@@H](CCCNC(=N)N)NC(=O)[C@H](Cc1ccccc1)NC(=O)[C@H](CCCCN)NC(C)=O)C(=O)N1CCC[C@H]1C(=O)N[C@@H](Cc1ccc(Br)cc1)C(=O)O [P92, N-Acetyl-Lys-Phe-DArg-Arg-DGln-Arg-Pro-Arg-DLeu-Ser-Aib-Lys-DAla-Pro-Nle-Pro-(4Br)Phe-OH] (HELM PEPTIDE1{[ac].K.F.[dR].R.[dQ].R.P.R.[dL].S.[Aib].K.[dA].P.[Nle].P.[O=C(O)[C@H](Cc1ccc(Br)cc1)N[*:1]]}$$$$V2.0)
agonist behaviour towards apelin receptor internalization (rat apelin receptor-EGFP [1]): full agonist
EC50 (rat apelin receptor-EGFP [1]; Table 2, read-out: Internalization EC50): 0.38 ± 0.11 nM
duration of the hypotensive effect, fold higher than K17F ([2]; 15 nmol i.v.): 3 fold
maximal hypotensive response, fold higher than K17F ([2]; 15 nmol i.v.): 3 fold
return to baseline after injection ([2]; 15 nmol/rat i.v.): 10.8 min
AUC of BP response ([2]; 100 nmol i.v., 15 minutes following injection): −34303±4003 mmHg·s
decrease in MABP ([2]; 100 nmol/rat i.v.): 55.4 mmHg
plateau value after maximal decrease ([2]; 100 nmol/rat i.v.): −20 mmHg
time of return to plateau value ([2]; 100 nmol/rat i.v.): around 35 min
plateau value after maximal decrease ([2]; 10 or 15 nmol i.v.): −25 mmHg
time of return to plateau value ([2]; 10 or 15 nmol i.v.): around 33 min
Maximal decrease in BP (mmHg) ([2]; 15 nmol i.v.): −20.8 mmHg
Time For maximal BP decrease ([2]; 15 nmol i.v.): 1.6 min
Time to return to a plateau value ([2]; 15 nmol i.v.): 10.8 min
plateau value reached (in brackets) ([2]; 15 nmol i.v.): −12 mmHg
ED50 decrease of MABP ([2]; i.v. 5-100 nmol/rat): 29.5 nmol
half-life at 5 μM (in vitro): 24 min
IC50 (rat apelin receptor-EGFP [3]; Table 1): 0.21 ± 0.13 nM
Ki (rat apelin receptor-EGFP [3]; competition with [125I]pE13F, CHO membranes, read-out: Ki for the apelin receptor (affinity)): 0.21 nM and 0.2 nM and 0.09 nM
chronotropic effect [4]: No chronotropic effect
effect on cardiac contractility (developed pressure) ([4]; K17F 0.01 to 300 nM, P92 200 and 400 nM): increase cardiac contractility with an amplitude similar to K17F
effect on plasma AVP levels in euhydrated mice [5]: no effect on plasma AVP levels
maximal decrease in AVP release ([5]; 0.1 μg i.c.v.): −85%
EC50 (rat apelin receptor-EGFP [6]; Table 7, read-out: ERK1/2 phosphorylation EC50): 3.42 ± 2.41 nM
selectivity towards the AT1 receptor with respect to the apelin receptor (factor) (AT1 receptor): 100
maximal relaxant effect ([7]; precontraction 3×10^−6 M NA): 100±1%
potency (pD2) of relaxation ([7]; precontraction 3×10^−6 M NA): 7.68±0.57
agonist behaviour on inhibition of cAMP production induced by forskolin (rat apelin receptor-EGFP [8]): full agonist
IC50 (rat apelin receptor-EGFP [8]; 10^−6 M forskolin, read-out: IC50 inhibition of forskolin-induced cAMP production): 0.2 ± 0.06 nM
IC50 (rat apelin receptor-EGFP [8]; Table 1, read-out: cAMP production IC50): 0.62 ± 0.77 nM
IC50 (rat apelin receptor-EGFP [8]; Table 2, read-out: cAMP production IC50): 0.56 ± 0.32 nM
arteriolar diameter after addition to Ang II-preconstricted arterioles ([9]; 500 nM, 1 nM Ang II, from 87.6±1.9% with Ang II, percentage of controls): 98.1±2.5%
vasorelaxant effect in the presence of L-NAME [9]: blocked

CSCC[C@H](NC(=O)[C@@H]1CCCN1C(=O)CNC(=O)[C@H](CCCCN)NC(=O)[C@H](Cc1c[nH]cn1)NC(=O)[C@H](CO)NC(=O)[C@H](CC(C)C)NC(=O)[C@H](CCCNC(=N)N)NC(=O)[C@@H]1CCCN1C(=O)[C@H](CCCNC(=N)N)NC(=O)[C@H](CCC(N)=O)NC(=O)[C@H](CCCNC(=N)N)NC(=O)[C@H](CCCNC(=N)N)NC(=O)[C@H](Cc1ccccc1)NC(=O)[C@H](CCCCN)NC(=O)CCC(F)(F)C(F)(F)C(F)(F)C(F)(F)C(F)(F)C(F)(F)C(F)(F)C(F)(F)F)C(=O)N1CCC[C@H]1C(=O)N[C@@H](Cc1ccccc1)C(=O)O [JFM V-0196B]
EC50 (rat apelin receptor-EGFP [1]): 0.41 ± 0.16 nM
duration of the hypotensive effect, fold higher than K17F ([2]; 15 nmol i.v.): 27 fold
maximal hypotensive response, fold higher than K17F ([2]; 15 nmol i.v.): 9 fold
BP decrease at the plateau value after 30 min ([2]; 15 nmol i.v., after 30 min): 21 mmHg
duration of the hypotensive effect, fold higher than K17F [2, 10]: 8 fold
maximal hypotensive response, fold higher than K17F [2, 10]: 6.7 fold
time of maximal hypotensive response after injection ([2]; 15 nmol/rat i.v.): 10 min
Maximal decrease in BP (mmHg) ([2]; 15 nmol i.v.): −52 mmHg
Time For maximal BP decrease ([2]; 15 nmol i.v.): 10 min
Time to return to a plateau value ([2]; 15 nmol i.v.): 33 min
plateau value reached (in brackets) ([2]; 15 nmol i.v.): −21 mmHg
starting peptide remaining after 4 h (in vitro; Table 4, mouse plasma, 37° C., 4 h): 100% of starting peptide after 4 h
half-life at 5 μM (in vitro): > 240 min
Ki (rat apelin receptor-EGFP [3]; Binding affinity Ki (nM), Table 7, additional experiments vs Table 2): 0.08 ± 0.01 nM
Ki (rat apelin receptor-EGFP [3]; Ki for the apelin receptor (affinity), competition with [125I]pE13F, CHO membranes): 0.2 nM
Ki (rat apelin receptor-EGFP [3]; [125I]pE13F binding I (nM), Table 2): 0.21 ± 0.27 nM
effect on plasma AVP levels in euhydrated mice [5]: no effect on plasma AVP levels
maximal decrease in AVP release ([5]; 0.01 μg i.c.v.): −75%
EC50 (rat apelin receptor-EGFP [6]): 0.89 ± 0.61 nM
vasorelaxing effect at maximal concentration ([7]; 100 μM): 60±3%
IC50 (rat apelin receptor-EGFP [8]): 3.13 ± 1.43 nM
arteriolar diameter after application to Ang II-precontracted arterioles ([9]; 500 nM, 1 nM Ang II, from 12.97±0.50 μm): 13.88±0.45 μm
vasorelaxant effect in the presence of L-NAME [9]: not significantly changed

Reference: patent US20210206817A1, “Metabolically Stable Apelin Analogs in the Treatment of Disease Mediated by the Apelin Receptor” (priority 2014, published 2021)
